Test results published in the kinase profiling compilation of Christmann-Franck et al. (2016).
Each block holds one compound with its values, some of them ahead of it.

How the values were obtained:
Assay in all cases: KINOMEscan competition binding
Settings in all cases: compound 10.0 µM
PDGFRB (human) = PDGFRB (human) (UniProt P09619)
[1] = test system: PIK3CA (human), P42336 [E545K]
MKNK2 (human) = MKNK2 (human) (UniProt Q9HBH9)
RPS6KA2 KD1 (human) = RPS6KA2 KD1 (human) (UniProt Q15349)
FER (human) = FER (human) (UniProt P16591)
CSNK1G1 (human) = CSNK1G1 (human) (UniProt Q9HCP0)
PIP5K1A (human) = PIP5K1A (human) (UniProt Q99755)
HCK (human) = HCK (human) (UniProt P08631)
EPHB4 (human) = EPHB4 (human) (UniProt P54760)
[2] = target: JAK1 JH1 catalytic (human) (UniProt P23458)
EPHA8 (human) = EPHA8 (human) (UniProt P29322)
MAPK8 (human) = MAPK8 (human) (UniProt P45983)
CDK2 (human) = CDK2 (human) (UniProt P24941)
CDK7 (human) = CDK7 (human) (UniProt P50613)
MAP3K13 (human) = MAP3K13 (human) (UniProt O43283)
TEC (human) = TEC (human) (UniProt P42680)
PIK3CD (human) = PIK3CD (human) (UniProt O00329)
GAK (human) = GAK (human) (UniProt O14976)
MAPK14 (human) = MAPK14 (human) (UniProt Q16539)
MAP3K1 (human) = MAP3K1 (human) (UniProt Q13233)
CAMK2A (human) = CAMK2A (human) (UniProt Q9UQM7)
EPHA1 (human) = EPHA1 (human) (UniProt P21709)
CDC2L2 (human) = CDC2L2 (human) (UniProt Q9UQ88)
MAPK9 (human) = MAPK9 (human) (UniProt P45984)
[3] = test system: ABL1 (human), P00519 [F317I]
CDC42BPA (human) = CDC42BPA (human) (UniProt Q5VT25)
MAP3K6 (human) = MAP3K6 (human) (UniProt O95382)
PIK3CB (human) = PIK3CB (human) (UniProt P42338)
MYLK4 (human) = MYLK4 (human) (UniProt Q86YV6)
CSK (human) = CSK (human) (UniProt P41240)
TGFBR1 (human) = TGFBR1 (human) (UniProt P36897)
[4] = test system: KIT (human), P10721 [D816V]
CDK5 (human) = CDK5 (human) (UniProt Q00535)
CSNK1G3 (human) = CSNK1G3 (human) (UniProt Q9Y6M4)
SRMS (human) = SRMS (human) (UniProt Q9H3Y6)
RIPK4 (human) = RIPK4 (human) (UniProt P57078)
NTRK2 (human) = NTRK2 (human) (UniProt Q16620)
CaMK1 (human) = CaMK1 (human) (UniProt Q14012)
EPHB6 (human) = EPHB6 (human) (UniProt O15197)
MINK1 (human) = MINK1 (human) (UniProt Q8N4C8)
MAP4K4 (human) = MAP4K4 (human) (UniProt O95819)

MAPK9 (human), sequence (P45984 whole entry, looked up): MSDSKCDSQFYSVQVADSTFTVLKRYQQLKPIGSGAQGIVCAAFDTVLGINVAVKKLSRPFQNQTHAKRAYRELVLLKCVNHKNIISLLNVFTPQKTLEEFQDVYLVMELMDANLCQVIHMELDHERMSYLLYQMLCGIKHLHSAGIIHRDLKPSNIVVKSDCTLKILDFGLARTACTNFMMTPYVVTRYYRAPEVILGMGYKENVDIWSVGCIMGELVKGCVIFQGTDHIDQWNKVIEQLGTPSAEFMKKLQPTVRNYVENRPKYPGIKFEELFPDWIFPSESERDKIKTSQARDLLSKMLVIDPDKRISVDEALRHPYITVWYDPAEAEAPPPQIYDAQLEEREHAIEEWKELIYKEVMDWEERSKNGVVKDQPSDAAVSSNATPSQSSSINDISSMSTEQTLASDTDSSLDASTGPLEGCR
CSNK1G3 (human), sequence (Q9Y6M4 whole entry, looked up): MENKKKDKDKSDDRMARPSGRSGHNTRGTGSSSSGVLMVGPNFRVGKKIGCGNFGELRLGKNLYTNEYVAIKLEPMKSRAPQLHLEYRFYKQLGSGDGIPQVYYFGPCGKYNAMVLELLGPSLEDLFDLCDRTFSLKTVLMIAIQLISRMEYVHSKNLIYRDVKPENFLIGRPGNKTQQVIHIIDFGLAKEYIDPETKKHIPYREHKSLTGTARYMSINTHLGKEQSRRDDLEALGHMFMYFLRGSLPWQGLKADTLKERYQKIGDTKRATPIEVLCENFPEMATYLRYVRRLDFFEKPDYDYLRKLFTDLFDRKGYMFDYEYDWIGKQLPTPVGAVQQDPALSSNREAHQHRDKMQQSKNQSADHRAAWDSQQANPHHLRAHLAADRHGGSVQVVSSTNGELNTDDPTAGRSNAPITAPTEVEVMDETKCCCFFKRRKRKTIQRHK
MAPK14 (human), sequence (Q16539 whole entry, looked up): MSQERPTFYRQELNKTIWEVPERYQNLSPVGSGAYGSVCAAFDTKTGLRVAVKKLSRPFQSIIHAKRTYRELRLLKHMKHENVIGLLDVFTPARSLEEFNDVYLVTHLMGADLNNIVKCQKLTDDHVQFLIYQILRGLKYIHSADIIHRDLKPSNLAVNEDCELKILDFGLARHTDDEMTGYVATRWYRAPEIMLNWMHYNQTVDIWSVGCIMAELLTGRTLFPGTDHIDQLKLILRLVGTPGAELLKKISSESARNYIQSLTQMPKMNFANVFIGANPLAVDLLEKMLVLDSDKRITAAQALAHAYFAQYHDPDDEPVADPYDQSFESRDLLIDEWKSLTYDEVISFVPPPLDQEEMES
EPHB6 (human), sequence (O15197 whole entry, looked up): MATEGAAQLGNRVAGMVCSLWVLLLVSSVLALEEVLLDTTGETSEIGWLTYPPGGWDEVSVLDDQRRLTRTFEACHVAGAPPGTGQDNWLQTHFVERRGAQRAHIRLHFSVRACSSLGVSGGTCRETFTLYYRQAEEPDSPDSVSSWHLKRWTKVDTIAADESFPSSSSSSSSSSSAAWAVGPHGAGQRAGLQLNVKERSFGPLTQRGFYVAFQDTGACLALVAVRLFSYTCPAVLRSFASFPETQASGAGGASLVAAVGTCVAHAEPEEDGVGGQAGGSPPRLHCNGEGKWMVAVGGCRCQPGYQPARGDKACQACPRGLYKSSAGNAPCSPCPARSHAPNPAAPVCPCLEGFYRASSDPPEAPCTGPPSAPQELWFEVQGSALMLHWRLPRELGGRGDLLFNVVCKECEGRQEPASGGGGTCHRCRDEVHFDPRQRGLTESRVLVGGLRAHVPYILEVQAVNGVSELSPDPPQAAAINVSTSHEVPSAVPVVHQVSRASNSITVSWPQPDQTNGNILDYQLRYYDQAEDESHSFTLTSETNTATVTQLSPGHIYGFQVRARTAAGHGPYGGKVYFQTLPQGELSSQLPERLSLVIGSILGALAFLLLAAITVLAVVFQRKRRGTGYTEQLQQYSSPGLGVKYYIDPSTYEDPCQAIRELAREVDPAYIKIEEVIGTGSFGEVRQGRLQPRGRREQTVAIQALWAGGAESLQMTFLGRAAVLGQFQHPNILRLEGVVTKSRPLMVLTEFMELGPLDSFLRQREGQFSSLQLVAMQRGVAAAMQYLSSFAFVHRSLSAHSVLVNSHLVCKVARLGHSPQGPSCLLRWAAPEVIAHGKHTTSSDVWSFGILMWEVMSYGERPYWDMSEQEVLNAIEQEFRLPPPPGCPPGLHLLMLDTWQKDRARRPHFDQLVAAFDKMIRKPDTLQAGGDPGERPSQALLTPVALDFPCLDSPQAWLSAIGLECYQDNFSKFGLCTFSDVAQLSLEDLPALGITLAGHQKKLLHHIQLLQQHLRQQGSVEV
EPHA1 (human), sequence (P21709 whole entry, looked up): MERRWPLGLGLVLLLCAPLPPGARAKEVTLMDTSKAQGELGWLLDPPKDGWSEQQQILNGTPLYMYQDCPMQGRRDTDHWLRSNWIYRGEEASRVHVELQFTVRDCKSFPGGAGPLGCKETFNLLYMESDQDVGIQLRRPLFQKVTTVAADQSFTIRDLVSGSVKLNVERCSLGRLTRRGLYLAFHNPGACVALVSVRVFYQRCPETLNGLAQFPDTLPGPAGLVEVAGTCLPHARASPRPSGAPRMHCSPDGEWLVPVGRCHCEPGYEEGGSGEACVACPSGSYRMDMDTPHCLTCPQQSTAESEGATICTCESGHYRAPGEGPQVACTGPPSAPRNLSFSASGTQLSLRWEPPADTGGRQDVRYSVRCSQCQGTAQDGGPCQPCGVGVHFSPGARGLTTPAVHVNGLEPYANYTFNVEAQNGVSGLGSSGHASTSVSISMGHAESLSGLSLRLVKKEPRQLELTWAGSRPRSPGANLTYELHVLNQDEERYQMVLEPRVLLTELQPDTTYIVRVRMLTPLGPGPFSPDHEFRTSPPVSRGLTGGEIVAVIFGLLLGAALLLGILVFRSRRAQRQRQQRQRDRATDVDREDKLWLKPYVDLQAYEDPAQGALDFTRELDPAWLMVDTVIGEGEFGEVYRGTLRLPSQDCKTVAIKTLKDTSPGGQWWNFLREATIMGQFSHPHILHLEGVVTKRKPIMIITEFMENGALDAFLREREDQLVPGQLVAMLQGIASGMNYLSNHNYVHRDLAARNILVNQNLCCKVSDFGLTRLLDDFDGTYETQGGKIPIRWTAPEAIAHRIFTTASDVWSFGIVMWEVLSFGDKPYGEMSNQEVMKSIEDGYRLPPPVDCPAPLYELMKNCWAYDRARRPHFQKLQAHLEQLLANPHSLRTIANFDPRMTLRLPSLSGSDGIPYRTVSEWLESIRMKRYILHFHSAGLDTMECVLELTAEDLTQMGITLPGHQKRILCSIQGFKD
TGFBR1 (human), sequence (P36897 whole entry, looked up): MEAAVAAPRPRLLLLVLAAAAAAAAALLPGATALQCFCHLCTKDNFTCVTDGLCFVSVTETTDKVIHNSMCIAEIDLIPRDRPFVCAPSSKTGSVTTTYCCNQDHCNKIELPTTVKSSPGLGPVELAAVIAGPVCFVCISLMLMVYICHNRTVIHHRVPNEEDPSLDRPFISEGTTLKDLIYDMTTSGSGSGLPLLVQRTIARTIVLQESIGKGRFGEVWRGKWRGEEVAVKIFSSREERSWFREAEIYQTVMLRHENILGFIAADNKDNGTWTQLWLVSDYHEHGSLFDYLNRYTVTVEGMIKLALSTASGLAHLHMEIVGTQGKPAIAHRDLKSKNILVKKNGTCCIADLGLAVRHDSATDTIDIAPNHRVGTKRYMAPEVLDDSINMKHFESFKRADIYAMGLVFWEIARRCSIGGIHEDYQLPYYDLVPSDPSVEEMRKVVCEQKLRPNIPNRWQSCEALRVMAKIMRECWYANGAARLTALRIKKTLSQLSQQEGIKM
MAPK8 (human), sequence (P45983 whole entry, looked up): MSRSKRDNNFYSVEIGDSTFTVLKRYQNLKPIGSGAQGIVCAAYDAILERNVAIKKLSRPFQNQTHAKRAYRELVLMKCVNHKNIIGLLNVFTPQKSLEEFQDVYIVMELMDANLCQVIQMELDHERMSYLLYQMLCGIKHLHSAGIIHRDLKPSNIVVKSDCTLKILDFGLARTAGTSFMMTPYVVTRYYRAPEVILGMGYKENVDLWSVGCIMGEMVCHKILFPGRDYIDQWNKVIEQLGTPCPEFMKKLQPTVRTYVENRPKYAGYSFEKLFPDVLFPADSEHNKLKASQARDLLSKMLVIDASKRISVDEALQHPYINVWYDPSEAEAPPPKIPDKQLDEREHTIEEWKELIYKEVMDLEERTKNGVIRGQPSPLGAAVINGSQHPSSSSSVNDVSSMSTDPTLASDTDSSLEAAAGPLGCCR
CAMK2A (human), sequence (Q9UQM7 whole entry, looked up): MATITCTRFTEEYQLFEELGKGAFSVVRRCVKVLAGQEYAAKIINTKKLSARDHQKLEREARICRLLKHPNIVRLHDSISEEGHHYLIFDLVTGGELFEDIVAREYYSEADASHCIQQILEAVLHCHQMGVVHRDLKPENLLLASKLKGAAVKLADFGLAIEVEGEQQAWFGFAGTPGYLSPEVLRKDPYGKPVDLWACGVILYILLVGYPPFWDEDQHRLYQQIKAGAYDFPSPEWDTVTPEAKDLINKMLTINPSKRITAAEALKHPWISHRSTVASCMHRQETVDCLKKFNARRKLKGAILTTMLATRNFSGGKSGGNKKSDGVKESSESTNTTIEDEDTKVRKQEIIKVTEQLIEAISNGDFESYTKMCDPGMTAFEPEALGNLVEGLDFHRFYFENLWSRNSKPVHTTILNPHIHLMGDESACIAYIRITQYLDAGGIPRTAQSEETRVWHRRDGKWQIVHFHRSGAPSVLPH
CaMK1 (human), sequence (Q14012 whole entry, looked up): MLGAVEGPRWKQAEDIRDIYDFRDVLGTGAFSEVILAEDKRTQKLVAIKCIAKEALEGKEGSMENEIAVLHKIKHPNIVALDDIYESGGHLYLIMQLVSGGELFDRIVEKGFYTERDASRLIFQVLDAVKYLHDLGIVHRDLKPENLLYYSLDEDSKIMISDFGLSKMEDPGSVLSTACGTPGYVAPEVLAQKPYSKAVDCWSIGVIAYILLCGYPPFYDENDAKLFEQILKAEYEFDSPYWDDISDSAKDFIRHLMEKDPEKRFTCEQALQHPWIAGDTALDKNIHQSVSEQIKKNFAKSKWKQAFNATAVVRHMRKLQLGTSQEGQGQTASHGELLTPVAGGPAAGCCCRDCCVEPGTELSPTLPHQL

kinase still bound, per cent of control (PDGFRB (human)): 74% | kinase still bound, per cent of control [1]: 100% | kinase still bound, per cent of control (MKNK2 (human)): 82% | kinase still bound, per cent of control (RPS6KA2 KD1 (human)): 70% | kinase still bound, per cent of control (FER (human)): 100% | kinase still bound, per cent of control (CSNK1G1 (human)): 49% | kinase still bound, per cent of control (PIP5K1A (human)): 100% | kinase still bound, per cent of control (HCK (human)): 100% | kinase still bound, per cent of control (EPHB4 (human)): 100% | kinase still bound, per cent of control [2]: 94% | kinase still bound, per cent of control (EPHA8 (human)): 100% | kinase still bound, per cent of control (MAPK8 (human)): 94% | kinase still bound, per cent of control (CDK2 (human)): 54% | kinase still bound, per cent of control (CDK7 (human)): 64% | kinase still bound, per cent of control (MAP3K13 (human)): 80% | kinase still bound, per cent of control (TEC (human)): 100% | kinase still bound, per cent of control (PIK3CD (human)): 93% | kinase still bound, per cent of control (GAK (human)): 79% | kinase still bound, per cent of control (MAPK14 (human)): 98% | kinase still bound, per cent of control (MAP3K1 (human)): 100% | kinase still bound, per cent of control (CAMK2A (human)): 89% | kinase still bound, per cent of control (EPHA1 (human)): 100% | kinase still bound, per cent of control (CDC2L2 (human)): 100% | kinase still bound, per cent of control (MAPK9 (human)): 87% | kinase still bound, per cent of control [3]: 100% | kinase still bound, per cent of control (CDC42BPA (human)): 100% | kinase still bound, per cent of control (MAP3K6 (human)): 80% | kinase still bound, per cent of control (PIK3CB (human)): 100% | kinase still bound, per cent of control (MYLK4 (human)): 98% | kinase still bound, per cent of control (CSK (human)): 100% | kinase still bound, per cent of control (TGFBR1 (human)): 100% | kinase still bound, per cent of control [4]: 100% | kinase still bound, per cent of control (CDK5 (human)): 67% | kinase still bound, per cent of control (CSNK1G3 (human)): 56% | kinase still bound, per cent of control (SRMS (human)): 95% | kinase still bound, per cent of control (RIPK4 (human)): 100% | kinase still bound, per cent of control (NTRK2 (human)): 100% | kinase still bound, per cent of control (CaMK1 (human)): 100% | kinase still bound, per cent of control (EPHB6 (human)): 100% | kinase still bound, per cent of control (MINK1 (human)): 75%
Compound: Cc1cnc(-c2cnc(NCCNc3ccc(C#N)cn3)nc2-c2ccc(Cl)cc2Cl)[nH]1

kinase still bound, per cent of control (PDGFRB (human)): 82% | kinase still bound, per cent of control [1]: 100% | kinase still bound, per cent of control (MKNK2 (human)): 89% | kinase still bound, per cent of control (RPS6KA2 KD1 (human)): 73% | kinase still bound, per cent of control (FER (human)): 100% | kinase still bound, per cent of control (CSNK1G1 (human)): 81% | kinase still bound, per cent of control (PIP5K1A (human)): 100% | kinase still bound, per cent of control (HCK (human)): 100% | kinase still bound, per cent of control (EPHB4 (human)): 100% | kinase still bound, per cent of control [2]: 90% | kinase still bound, per cent of control (EPHA8 (human)): 100% | kinase still bound, per cent of control (MAPK8 (human)): 77% | kinase still bound, per cent of control (CDK2 (human)): 7.4% | kinase still bound, per cent of control (CDK7 (human)): 43% | kinase still bound, per cent of control (MAP3K13 (human)): 84% | kinase still bound, per cent of control (TEC (human)): 84% | kinase still bound, per cent of control (PIK3CD (human)): 100% | kinase still bound, per cent of control (GAK (human)): 74% | kinase still bound, per cent of control (MAPK14 (human)): 72% | kinase still bound, per cent of control (MAP3K1 (human)): 100% | kinase still bound, per cent of control (CAMK2A (human)): 36% | kinase still bound, per cent of control (MAP4K4 (human)): 76% | kinase still bound, per cent of control (EPHA1 (human)): 100% | kinase still bound, per cent of control (CDC2L2 (human)): 100% | kinase still bound, per cent of control (MAPK9 (human)): 59% | kinase still bound, per cent of control [3]: 100% | kinase still bound, per cent of control (CDC42BPA (human)): 100% | kinase still bound, per cent of control (MAP3K6 (human)): 64% | kinase still bound, per cent of control (PIK3CB (human)): 85% | kinase still bound, per cent of control (MYLK4 (human)): 38% | kinase still bound, per cent of control (CSK (human)): 100% | kinase still bound, per cent of control (TGFBR1 (human)): 96% | kinase still bound, per cent of control [4]: 89% | kinase still bound, per cent of control (CDK5 (human)): 47% | kinase still bound, per cent of control (CSNK1G3 (human)): 69% | kinase still bound, per cent of control (SRMS (human)): 86% | kinase still bound, per cent of control (RIPK4 (human)): 100% | kinase still bound, per cent of control (NTRK2 (human)): 70% | kinase still bound, per cent of control (CaMK1 (human)): 98% | kinase still bound, per cent of control (EPHB6 (human)): 100% | kinase still bound, per cent of control (MINK1 (human)): 60%
Compound: Cn1cc(C2=C(c3ccc(Cl)cc3Cl)C(=O)NC2=O)c2ccccc21
